Experimental data: patent US7056947B2, “Aza-peptide epoxides” (Georgia Tech Research Corp., priority 2002, dated 2006)

Tests used:
Type in all cases: biochemical
cathepsin B = cathepsin B (Homo sapiens, UniProt P07858); assay: Inhibition of cathepsin B, incubation method; settings: second-order rate constant, NI = no inhibition; for kinact/KI: pH 6, read-out: kobs/[I] cathepsin B
Description: (§1) The release of 7-amino-4-methylcoumarin was monitored (λex=360 nm, λem=465 nm) using a Tecan Spectra Fluor microplate reader. Pseudo first-order inactivation rate constants were obtained from plots of In vt/vo versus time.

papain = molecular target: T1, papain (Carica papaya, UniProt P00784); assay: Inhibition of papain, incubation method; settings: second-order rate constant, NI = no inhibition; for kinact/KI: pH 7.5, read-out: kobs/[I] papain
T1 sequence (P00784 134-345): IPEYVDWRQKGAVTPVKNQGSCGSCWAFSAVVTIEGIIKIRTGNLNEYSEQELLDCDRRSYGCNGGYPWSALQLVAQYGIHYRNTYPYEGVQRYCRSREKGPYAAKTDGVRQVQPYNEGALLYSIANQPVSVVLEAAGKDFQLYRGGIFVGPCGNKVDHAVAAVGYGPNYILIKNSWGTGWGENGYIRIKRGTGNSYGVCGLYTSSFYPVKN
Protocol: as §1
The incubation method was also used for papain. The inhibition incubation buffer for papain was 50 mM Hepes buffer at pH 7.5, containing 2.5 mM DTT and 2.5 mM EDTA. The assay used the substrate Z-Phe-Arg-pNA (53.7 μM) in the same buffer. The approximate concentration of papain added to the incubation buffer was 0.29 mg/mL. The release of p-nitroanilide was monitored at 405 nm with a Molecular Devices Thermomax microplate reader.

calpain = assay: Inhibition of calpain; settings: second-order rate constant; NI = no inhibition
caspase-1 = molecular target: T2, caspase-1 (Homo sapiens, UniProt P29466, D381E); assay: Caspase-1 progress curve assay; settings: D381E variant, substrate Ac-YVAD-AMC, 30° C.
T2 construct: His tag (N); made in house; host or cells: E. coli
T2 sequence (P29466 120-297 limits assumed): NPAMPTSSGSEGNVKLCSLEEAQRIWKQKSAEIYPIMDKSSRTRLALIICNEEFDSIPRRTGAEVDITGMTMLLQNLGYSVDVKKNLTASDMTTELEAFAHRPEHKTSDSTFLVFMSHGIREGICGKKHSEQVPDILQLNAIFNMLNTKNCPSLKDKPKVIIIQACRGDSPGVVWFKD
T2 sequence (P29466 317-404 D381E limits assumed): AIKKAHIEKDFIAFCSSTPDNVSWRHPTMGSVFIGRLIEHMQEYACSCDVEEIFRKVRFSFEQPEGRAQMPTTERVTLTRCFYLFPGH
Method in brief: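 Autolysis-resistant D381E caspase-1 (E. coli, N-His tag), about 2 nM, added with 15 μM Ac-YVAD-AMC in HEPES/glycerol/EDTA buffer with 5 mM DTT to prewarmed compound at 30 °C. AMC fluorescence followed 900 s, triplicate curves fit to irreversible inactivation; kon (M^−1s^−1) from regression slope.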

caspase-3 = molecular target: T3, caspase-3 (Homo sapiens, UniProt P42574); assay: Caspase-3 progress curve assay; settings: substrate Z-DEVD-AFC; NI = no inhibition
T3 construct: made in house; host or cells: E. coli
T3 sequence (P42574 29-175 limits assumed): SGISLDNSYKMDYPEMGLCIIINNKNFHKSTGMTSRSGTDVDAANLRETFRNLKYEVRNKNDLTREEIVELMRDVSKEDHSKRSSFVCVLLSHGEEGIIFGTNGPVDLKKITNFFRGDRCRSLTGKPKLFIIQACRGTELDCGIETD
T3 sequence (P42574 176-277 limits assumed): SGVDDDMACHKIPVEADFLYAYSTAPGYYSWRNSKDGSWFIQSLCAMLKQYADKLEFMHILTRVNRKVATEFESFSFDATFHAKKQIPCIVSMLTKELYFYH
Method in brief: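 E. coli-expressed caspases, pre-activated 10 min at 37° C with 10 mM DTT, were added to 100 μM Z-DEVD-AFC plus inhibitor in 50 mM Hepes, 100 mM NaCl, 0.1% CHAPS, 10% sucrose, 10 mM DTT, pH 7.4. AFC fluorescence (ex 400/em 505 nm) was followed; inhibition rates and equilibria came from progress curves.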

## CCOC(=O)[C@@H]1O[C@H]1C(=O)N(CC(C)C)NC(=O)[C@H](CC(C)C)NC(=O)OCc1ccccc1 (relative stereo) [Cbz-Leu-ALeu-trans-EP-COOEt, trans-3-(N^2-(N-Benzyloxycarbonyleucyl)-N^1-isobutylhydrazinocarbonyl)oxirane-2-carboxylic Acid Ethyl Ester]
Cathepsin B
  kobs/[I] cathepsin B: 23.32 M⁻¹ s⁻¹
papain
  kobs/[I] papain: 6.37 M⁻¹ s⁻¹
calpain
  kobs/[I] calpain: 3.09 M⁻¹ s⁻¹

## CCOC(=O)[C@@H]1O[C@@H]1C(=O)N(CCc1ccccc1)NC(=O)[C@H](CC(C)C)NC(=O)OCc1ccccc1 (relative stereo) [Cbz-Leu-AHph-cis-EP-COOEt, cis-3-(N-(N-Benzyloxycarbonyleucyl)-N^1-phenylethylhydrazinocarbonyl)oxirane-2-carboxylic Acid Ethyl Ester]
papain
  kobs/[I] papain: 1.03 M⁻¹ s⁻¹
calpain
  kobs/[I] calpain: 1.09 M⁻¹ s⁻¹

## CCOC(=O)CN(NC(=O)[C@H](C)NC(=O)[C@H](C)NC(=O)OCc1ccccc1)C(=O)[C@@H]1O[C@H]1C(=O)OCC (relative stereo) [Cbz-Ala-Ala-NHN(CH2COOEt)-trans-EP-COOEt, trans-3-(N^2-(N-Benzyloxycarbonylalanylalanyl)-N^1-ethoxycarbonylmethylhydrazinocarbonyl)oxirane-2-carboxylic Acid Ethyl Ester]
Cathepsin B
  kinact/KI: 2.53 M⁻¹ s⁻¹
papain
  kinact/KI: 8.17 M⁻¹ s⁻¹

## CCOC(=O)[C@@H]1O[C@H]1C(=O)N(CC(C)C)NC(=O)C(CC(C)C)NC(=O)OCc1ccccc1 (stereo partly drawn) [Cbz-Leu-ALeu-(2R, 3R)-EP-COOEt, (2R,3R)-3-(N^2-(N-Benzyloxycarbonyleucyl)-N^1-isobutylhydrazinocarbonyl)oxirane-2-carboxylic Acid Ethyl Ester]
papain
  kobs/[I] papain: 6.70 M⁻¹ s⁻¹
calpain
  kobs/[I] calpain: 1.45 M⁻¹ s⁻¹

## CC(C)C[C@H](NC(=O)OCc1ccccc1)C(=O)N[C@@H](CC(C)C)C(=O)NN(CC(C)C)C(=O)[C@H]1O[C@@H]1C(=O)O [Cbz-Leu-Leu-ALeu-(2S, 3S)-EP-COOH, (2S,3S)-3-(N^2-(N-Benzyloxycarbonylleucylleucyl)-N^1-isobutylhydrazinocarbonyl)oxirane-2-carboxylic Acid]
Cathepsin B
  kinact/KI: 7.02 M⁻¹ s⁻¹
papain
  kinact/KI: 6.93 M⁻¹ s⁻¹
calpain
  kobs/[I] calpain: 0.82 M⁻¹ s⁻¹

## CCOC(=O)C1OC1C(=O)N(CCc1ccccc1)NC(C)=O (stereo not drawn) [Ac-AHph-trans-EP-COOEt, trans-3-(N^2-(N-Acetyl)-N^1-phenylethylhydrazinocarbonyl)oxirane-2-carboxylic Acid Ethyl Ester]
Cathepsin B
  kobs/[I] cathepsin B: 40.62 M⁻¹ s⁻¹
papain
  kobs/[I] papain: 26.88 M⁻¹ s⁻¹
calpain
  kobs/[I] calpain: 1.29 M⁻¹ s⁻¹

## CCOC(=O)[C@@H]1O[C@H]1C(=O)N(CC(C)C)NC(=O)[C@H](CC(C)C)NC(=O)[C@H](CC(C)C)NC(=O)OCc1ccccc1 (relative stereo) [Cbz-Leu-Leu-ALeu-trans-EP-COOEt, trans-3-(N^2-(N-Benzyloxycarbonylleucylleucyl)-N^1-isobutylhydrazinocarbonyl)oxirane-2-carboxylic Acid Ethyl Ester]
papain
  kinact/KI: 34.8 M⁻¹ s⁻¹
calpain
  kobs/[I] calpain: 2.65 M⁻¹ s⁻¹

## CCOC(=O)[C@@H]1O[C@H]1C(=O)N(CCc1ccccc1)NC(=O)OCc1ccccc1 (relative stereo) [Cbz-AHph-trans-EP-COOEt, trans-3-(N^2-(N-Benzyloxycarbonyl)-N^1-phenylethylhydrazinocarbonyl)oxirane-2-carboxylic Acid Ethyl Ester]
Cathepsin B
  kobs/[I] cathepsin B: 8.91 M⁻¹ s⁻¹
papain
  kobs/[I] papain: 18.8 M⁻¹ s⁻¹
calpain
  kobs/[I] calpain: 2.44 M⁻¹ s⁻¹

## CC(C)[C@H](NC(=O)CCc1ccccc1)C(=O)N[C@@H](C)C(=O)NN(CC(=O)O)C(=O)[C@@H]1O[C@H]1C(=O)OCc1ccccc1 (relative stereo) [23d (trans), trans-3-(N^2-(N-3-Phenylpropanoylvalylalanyl)-N^1-carboxylmethylhydrazinocarbonyl)oxirane-2-carboxylic Acid Benzyl Ester]
caspase-1
  k2 caspase-1: 18070 ± 2625 M⁻¹ s⁻¹
Cathepsin B
  kinact/KI: < 10 M⁻¹ s⁻¹
caspase-3
  k2 caspase-3: 680 ± 140 M⁻¹ s⁻¹
papain
  kinact/KI: < 10 M⁻¹ s⁻¹

## CCOC(=O)[C@@H]1O[C@H]1C(=O)N(CCc1ccccc1)NC(=O)[C@H](CC(C)C)NC(=O)OCc1ccccc1 [Cbz-Leu-AHph-(2R, 3R)-EP-COOEt, (2R,3R)-3-(N^2-(N-Benzyloxycarbonyleucyl)-N^1-phenylethylhydrazinocarbonyl)oxirane-2-carboxylic Acid Ethyl Ester]
papain
  kobs/[I] papain: 2.16 M⁻¹ s⁻¹
calpain
  kobs/[I] calpain: 2.12 M⁻¹ s⁻¹

## CC(C)C[C@H](NC(=O)OCc1ccccc1)C(=O)NN(CCc1ccccc1)C(=O)[C@H]1O[C@@H]1C(=O)O [Cbz-Leu-AHph-(2S, 3S)-EP-COOH, (2S,3S)-3-(N^2-(N-Benzyloxycarbonyleucyl)-N^1-phenylethylhydrazinocarbonyl)oxirane-2-carboxylic Acid]
calpain
  kobs/[I] calpain: 2.12 M⁻¹ s⁻¹

## CCOC(=O)[C@@H]1O[C@H]1C(=O)N(CC(C)C)NC(=O)[C@H](Cc1ccccc1)NC(=O)OCc1ccccc1 (relative stereo) [Cbz-Phe-ALeu-trans-EP-COOEt, trans-3-(N^2-(N-3-Benzyloxyphenylalanyl)-N^1-isobutylhydrazinocarbonyl)oxirane-2-carboxylic Acid Ethyl Ester]
Cathepsin B
  kobs/[I] cathepsin B: 3.61 M⁻¹ s⁻¹
papain
  kobs/[I] papain: 0.91 M⁻¹ s⁻¹

## CCOC(=O)[C@@H]1O[C@H]1C(=O)N(CC(C)C)NC(=O)C(Cc1ccc2ccccc2c1)NC(=O)CCC(=O)O (relative stereo) [Suc-Np2-ALeu-trans-EP-COOEt, trans-3-(N^2-(N-Succinyl-2-naphthylalanyl)-N^1-isobutylhydrazinocarbonyl)oxirane-2-carboxylic Acid Ethyl Ester]
Cathepsin B
  kobs/[I] cathepsin B: 0.8 M⁻¹ s⁻¹
papain
  kobs/[I] papain: 1.39 M⁻¹ s⁻¹

## CCOC(=O)[C@@H]1O[C@H]1C(=O)N(NCc1ccccc1)C(=O)OCc1ccccc1 (relative stereo) [Cbz-APhe-trans-EP-COOEt, trans-3-(N^2-Benzyl-N^1-benzyloxycarbonylhydrazinocarbonyl)oxirane-2-carboxylic Acid Ethyl Ester]
Cathepsin B
  kinact/KI: 1.8 M⁻¹ s⁻¹
papain
  kinact/KI: 8.5 M⁻¹ s⁻¹

## CCOC(=O)[C@@H]1O[C@H]1C(=O)N(CCC(N)=O)NC(=O)[C@H](Cc1ccccc1)NC(=O)[C@H](CC(C)C)NC(=O)OCc1ccccc1 (relative stereo) [Cbz-Leu-Phe-AGln-trans-EP-COOEt, trans-3-(N^2-(N-Benzyloxycarbonylleucylphenylalanyl)-N^1-carbamoylethylhydrazinocarbonyl)oxirane-2-carboxylic Acid Ethyl Ester]
Cathepsin B
  kinact/KI: 1.3 M⁻¹ s⁻¹
papain
  kinact/KI: 0.9 M⁻¹ s⁻¹

## CCN(NC(=O)[C@H](CC(C)C)NC(=O)OCc1ccccc1)C(=O)[C@@H]1O[C@H]1C(=O)O (relative stereo) [Cbz-Leu-AAbu-trans-EP-COOH, trans-3-(N-(N-Benzyloxycarbonyleucyl)-N^1-ethylhydrazinocarbonyl)oxirane-2-carboxylic Acid]
papain
  kobs/[I] papain: 1.47 M⁻¹ s⁻¹
calpain
  kobs/[I] calpain: 0.57 M⁻¹ s⁻¹

## CCOC(=O)[C@@H]1O[C@H]1C(=O)N(CC)NC(=O)C(CC(C)C)NC(=O)OCc1ccccc1 (relative stereo) [Cbz-Leu-AAbu-trans-EP-COOEt, trans-3-(N^2-(N-Benzyloxycarbonyleucyl)-N^1-ethylhydrazinocarbonyl)oxirane-2-carboxylic Acid Ethyl Ester]
papain
  kobs/[I] papain: 4.94 M⁻¹ s⁻¹
calpain
  kobs/[I] calpain: 1.98 M⁻¹ s⁻¹
